Here are results for one molecule from paper PMC2682676 (Diabetes, 2009).

Assay [1] has as its system subjects with type 2 diabetes. It is filed as in vivo, human.
For assay [2], the system named is subjects with type 2 diabetes. The experiment in a line: Gastric emptying by appearance of acetaminophen in plasma during GIP infusion. It is filed as in vivo, human. The following applies: 1 g acetaminophen with first bite; last 10 subjects.
A further assay relates to αTC1 cells. The experiment in a line: Glucagon secretion from αTC1 cells. Conditions: αTC1 cells stimulated with GIP; secretion into the medium. The format is cell-based.

For `CC[C@H](C)[C@H](NC(=O)[C@H](CO)NC(=O)[C@H](Cc1ccc(O)cc1)NC(=O)[C@H](CC(=O)O)NC(=O)[C@H](CO)NC(=O)[C@@H](NC(=O)[C@H](Cc1ccccc1)NC(=O)[C@@H](NC(=O)CNC(=O)[C@H](CCC(=O)O)NC(=O)[C@H](C)NC(=O)[C@@H](N)Cc1ccc(O)cc1)[C@@H](C)O)[C@@H](C)CC)C(=O)N[C@@H](C)C(=O)N[C@@H](CCSC)C(=O)N[C@@H](CC(=O)O)C(=O)N[C@@H](CCCCN)C(=O)N[C@H](C(=O)N[C@@H](Cc1c[nH]cn1)C(=O)N[C@@H](CCC(N)=O)C(=O)N[C@@H](CCC(N)=O)C(=O)N[C@@H](CC(=O)O)C(=O)N[C@@H](Cc1ccccc1)C(=O)N[C@H](C(=O)N[C@@H](CC(N)=O)C(=O)N[C@@H](Cc1c[nH]c2ccccc12)C(=O)N[C@@H](CC(C)C)C(=O)N[C@@H](CC(C)C)C(=O)N[C@@H](C)C(=O)N[C@@H](CCC(N)=O)C(=O)N[C@@H](CCCCN)C(=O)NCC(=O)N[C@@H](CCCCN)C(=O)N[C@@H](CCCCN)C(=O)N[C@@H](CC(N)=O)C(=O)N[C@@H](CC(=O)O)C(=O)N[C@@H](Cc1c[nH]c2ccccc12)C(=O)N[C@@H](CCCCN)C(=O)N[C@@H](Cc1c[nH]cn1)C(=O)N[C@@H](CC(N)=O)C(=O)N[C@H](C(=O)N[C@H](C(=O)N[C@@H](CCC(N)=O)C(=O)O)[C@@H](C)O)[C@@H](C)CC)C(C)C)[C@@H](C)CC` [GIP, Glucose-dependent insulinotropic polypeptide], the “plasma glucagon, early postprandial period vs placebo” value in assay [1] (20 ng/kg/min i.v., 0-60 min, positive AUC0-60 P < 0.01, n = 22) is listed as “statistically significant augmentation in glucagon secretion”. For the same molecule, the “plasma glucose, early postprandial period vs placebo” value in assay [1] (20 ng/kg/min i.v., t = 0-60 min, negative AUC0-60 P < 0.05, n = 22) is “early transient decrease in plasma glucose”. Also, the “plasma insulin, early postprandial period vs placebo” value in assay [1] (20 ng/kg/min i.v., t = 0-60 min, positive AUC0-60 P < 0.01, n = 22) is listed as “statistically significant increase in plasma insulin”. In addition, the “resistin levels vs placebo” value in assay [1] (during 3 h of infusion, data not shown) is on record as “no effect on resistin levels”. Further, in assay [2], the “gastric emptying (plasma acetaminophen levels, AUCALL t = 0-180 min) vs placebo” value is on record as “did not affect gastric emptying”. Besides, in the assay on αTC1 cells, the glucagon secretion result is given as “glucagon secretion in a concentration-dependent manner”.
